Data as given in US4731451A, “N-((2-oxo-3(2H)benzothiazolyl)methyl)-2-chloroacetanilides” (Monsanto Company, priority 1980, dated 1988).

Legend:
Type in all cases: in vivo
Lambsquarters [1] = assay: Pre-emergent herbicidal activity (Table II); settings: 2-3 weeks
Protocol: (§1) The pre-emergence tests are conducted as follows:
(§2) A good grade of top soil is placed in aluminum pans and compacted to a depth of three-eighths to one-half inch from the top of the pan. On the top of the soil is placed a predetermined number of seeds or vegetative propagules of various plant species. The soil required to level fill the pans after seeding or adding vegetative propagules is weighed into a pan. A known amount of the active ingredient applied in a solvent or as a wettable powder suspension and the soil are thoroughly mixed, and used as a cover layer for prepared pans. After treatment, the pans are moved into a greenhouse bench where they are watered from below as needed to give adequate moisture for germination and growth.
(§3) Approximately 2-3 weeks after seeding and treating, the plants are observed and the results recorded. The herbicidal rating is obtained by means of fixed scale based on the percent injury of each plant species. The ratings are defined as follows: […]
(§4) The plant species utilized in one set of tests, the data for which are shown in Table II, are identified by letter in accordance with the following legend: […]

Yellow Nutsedge = assay: Pre-emergent herbicidal activity (Table II); settings: 2-3 weeks
Protocol: as §1, §2, §3, §4

Velvetleaf [2] = assay: Pre-emergent herbicidal activity (Table II); settings: 2-3 weeks
Protocol: as §1, §2, §3, §4

Barnyardgrass [3] = assay: Pre-emergent herbicidal activity (Table II); settings: 2-3 weeks
Protocol: as §1, §2, §3, §4

Downy Brome [4] = assay: Pre-emergent herbicidal activity (Table II); settings: 2-3 weeks
Protocol: as §1, §2, §3, §4

Morningglory [5] = assay: Pre-emergent herbicidal activity (Table II); settings: 2-3 weeks
Protocol: as §1, §2, §3, §4

Smartweed [6] = assay: Pre-emergent herbicidal activity (Table II); settings: 2-3 weeks
Protocol: as §1, §2, §3, §4

Quackgrass = assay: Pre-emergent herbicidal activity (Table II); settings: 2-3 weeks
Protocol: as §1, §2, §3, §4

Johnsongrass = assay: Pre-emergent herbicidal activity (Table II); settings: 2-3 weeks
Protocol: as §1, §2, §3, §4

Canada Thistle = assay: Pre-emergent herbicidal activity (Table II); settings: 2-3 weeks
Protocol: as §1, §2, §3, §4

Cocklebur [7] = assay: Pre-emergent herbicidal activity (Table II); settings: 2-3 weeks
Protocol: as §1, §2, §3, §4

Soybean = assay: Pre-emergent herbicidal activity (Table III)
Protocol: as §1, §2, §3
(§5) The compounds were further tested by utilizing the above procedure on the following plant species: […]

Panicum = assay: Pre-emergent herbicidal activity (Table III)
Protocol: as §1, §2, §3, §5

Wheat = assay: Pre-emergent herbicidal activity (Table III)
Protocol: as §1, §2, §3, §5

Lambsquarters [8] = assay: Pre-emergent herbicidal activity (Table III)
Protocol: as §1, §2, §3, §5

Sorghum = assay: Pre-emergent herbicidal activity (Table III)
Protocol: as §1, §2, §3, §5

Velvetleaf [9] = assay: Pre-emergent herbicidal activity (Table III)
Protocol: as §1, §2, §3, §5

Sugarbeet = assay: Pre-emergent herbicidal activity (Table III)
Protocol: as §1, §2, §3, §5

Barnyardgrass [10] = assay: Pre-emergent herbicidal activity (Table III)
Protocol: as §1, §2, §3, §5

Downy Brome [11] = assay: Pre-emergent herbicidal activity (Table III)
Protocol: as §1, §2, §3, §5

Rice = assay: Pre-emergent herbicidal activity (Table III)
Protocol: as §1, §2, §3, §5

Morningglory [12] = assay: Pre-emergent herbicidal activity (Table III)
Protocol: as §1, §2, §3, §5

Hemp Sesbania = assay: Pre-emergent herbicidal activity (Table III)
Protocol: as §1, §2, §3, §5

Smartweed [13] = assay: Pre-emergent herbicidal activity (Table III)
Protocol: as §1, §2, §3, §5

Wild Buckwheat = assay: Pre-emergent herbicidal activity (Table III)
Protocol: as §1, §2, §3, §5

Crabgrass = assay: Pre-emergent herbicidal activity (Table III)
Protocol: as §1, §2, §3, §5

Cocklebur [14] = assay: Pre-emergent herbicidal activity (Table III)
Protocol: as §1, §2, §3, §5
Note: ranges in brackets are in %.

For CC1=C(N(Cn2c(=O)sc3ccccc32)C(=O)CCl)CCCC1 [Example 10, N--[(2-oxo-3(2H)--benzothiazolyl)methyl]-N--(2-methyl-1-cyclohexen-1-yl)-2-chloro-amide], the Herbicidal rating (Lambsquarters [1]; 5.6 kg/ha) was 0 (0-24), the Herbicidal rating (Lambsquarters [1]; 11.2 kg/ha) was 0 (0-24) and the Herbicidal rating (Yellow Nutsedge; 5.6 kg/ha) was 1 (25-49). For the same compound, the Herbicidal rating (Yellow Nutsedge; 11.2 kg/ha) was 1 (25-49), the Herbicidal rating (Velvetleaf [2]; 5.6 kg/ha) was 0 (0-24) and the Herbicidal rating (Velvetleaf [2]; 11.2 kg/ha) was 0 (0-24). For the same compound, the Herbicidal rating (Barnyardgrass [3]; 5.6 kg/ha) was 3 (75-100), the Herbicidal rating (Barnyardgrass [3]; 11.2 kg/ha) was 3 (75-100) and the Herbicidal rating (Downy Brome [4]; 5.6 kg/ha) was 3 (75-100). The Herbicidal rating (Downy Brome [4]; 11.2 kg/ha) was 3 (75-100), the Herbicidal rating (Morningglory [5]; 5.6 kg/ha) was 3 (75-100) and the Herbicidal rating (Morningglory [5]; 11.2 kg/ha) was 1 (25-49). For the same compound, the Herbicidal rating (Smartweed [6]; 5.6 kg/ha) was 0 (0-24), the Herbicidal rating (Smartweed [6]; 11.2 kg/ha) was 0 (0-24) and the Herbicidal rating (Quackgrass; 5.6 kg/ha) was 3 (75-100). For the same compound, the Herbicidal rating (Quackgrass; 11.2 kg/ha) was 0 (0-24), the Herbicidal rating (Johnsongrass; 5.6 kg/ha) was 0 (0-24) and the Herbicidal rating (Johnsongrass; 11.2 kg/ha) was 0 (0-24). The Herbicidal rating (Canada Thistle; 5.6 kg/ha) was 0 (0-24), the Herbicidal rating (Canada Thistle; 11.2 kg/ha) was 0 (0-24) and the Herbicidal rating (Cocklebur [7]; 5.6 kg/ha) was 0 (0-24). The Herbicidal rating (Cocklebur [7]; 11.2 kg/ha) was 0 (0-24), the Herbicidal rating (Soybean; 0.056 kg/ha) was 0 (0-24) and the Herbicidal rating (Soybean; 0.28 kg/ha) was 0 (0-24). For the same compound, the Herbicidal rating (Soybean; 1.12 kg/ha) was 0 (0-24), the Herbicidal rating (Soybean; 5.6 kg/ha) was 0 (0-24) and the Herbicidal rating (Panicum; 0.056 kg/ha) was 0 (0-24). The Herbicidal rating (Panicum; 0.28 kg/ha) was 0 (0-24), the Herbicidal rating (Panicum; 1.12 kg/ha) was 0 (0-24) and the Herbicidal rating (Panicum; 5.6 kg/ha) was 2 (50-74). For the same compound, the Herbicidal rating (Wheat; 0.056 kg/ha) was 0 (0-24), the Herbicidal rating (Wheat; 0.28 kg/ha) was 0 (0-24) and the Herbicidal rating (Wheat; 1.12 kg/ha) was 0 (0-24). The Herbicidal rating (Wheat; 5.6 kg/ha) was 1 (25-49), the Herbicidal rating (Lambsquarters [8]; 0.056 kg/ha) was 1 (25-49) and the Herbicidal rating (Lambsquarters [8]; 0.28 kg/ha) was 0 (0-24). The Herbicidal rating (Lambsquarters [8]; 1.12 kg/ha) was 1 (25-49), the Herbicidal rating (Lambsquarters [8]; 5.6 kg/ha) was 3 (75-100) and the Herbicidal rating (Sorghum; 0.056 kg/ha) was 0 (0-24). For the same compound, the Herbicidal rating (Sorghum; 0.28 kg/ha) was 0 (0-24), the Herbicidal rating (Sorghum; 1.12 kg/ha) was 0 (0-24) and the Herbicidal rating (Sorghum; 5.6 kg/ha) was 0 (0-24). The Herbicidal rating (Velvetleaf [9]; 0.056 kg/ha) was 0 (0-24), the Herbicidal rating (Velvetleaf [9]; 0.28 kg/ha) was 0 (0-24) and the Herbicidal rating (Velvetleaf [9]; 1.12 kg/ha) was 0 (0-24). The Herbicidal rating (Velvetleaf [9]; 5.6 kg/ha) was 0 (0-24), the Herbicidal rating (Sugarbeet; 0.056 kg/ha) was 0 (0-24) and the Herbicidal rating (Sugarbeet; 0.28 kg/ha) was 0 (0-24). For the same compound, the Herbicidal rating (Sugarbeet; 1.12 kg/ha) was 0 (0-24), the Herbicidal rating (Sugarbeet; 5.6 kg/ha) was 0 (0-24) and the Herbicidal rating (Barnyardgrass [10]; 0.056 kg/ha) was 3 (75-100). The Herbicidal rating (Barnyardgrass [10]; 0.28 kg/ha) was 3 (75-100), the Herbicidal rating (Barnyardgrass [10]; 1.12 kg/ha) was 2 (50-74) and the Herbicidal rating (Barnyardgrass [10]; 5.6 kg/ha) was 3 (75-100). For the same compound, the Herbicidal rating (Downy Brome [11]; 0.056 kg/ha) was 0 (0-24), the Herbicidal rating (Downy Brome [11]; 0.28 kg/ha) was 0 (0-24) and the Herbicidal rating (Downy Brome [11]; 1.12 kg/ha) was 0 (0-24). The Herbicidal rating (Downy Brome [11]; 5.6 kg/ha) was 2 (50-74), the Herbicidal rating (Rice; 0.056 kg/ha) was 0 (0-24) and the Herbicidal rating (Rice; 0.28 kg/ha) was 0 (0-24). The Herbicidal rating (Rice; 1.12 kg/ha) was 0 (0-24), the Herbicidal rating (Rice; 5.6 kg/ha) was 3 (75-100) and the Herbicidal rating (Morningglory [12]; 0.056 kg/ha) was 0 (0-24). For the same compound, the Herbicidal rating (Morningglory [12]; 0.28 kg/ha) was 0 (0-24), the Herbicidal rating (Morningglory [12]; 1.12 kg/ha) was 0 (0-24) and the Herbicidal rating (Morningglory [12]; 5.6 kg/ha) was 0 (0-24). For the same compound, the Herbicidal rating (Hemp Sesbania; 0.056 kg/ha) was 0 (0-24), the Herbicidal rating (Hemp Sesbania; 0.28 kg/ha) was 0 (0-24) and the Herbicidal rating (Hemp Sesbania; 1.12 kg/ha) was 0 (0-24). The Herbicidal rating (Hemp Sesbania; 5.6 kg/ha) was 0 (0-24), the Herbicidal rating (Smartweed [13]; 0.056 kg/ha) was 0 (0-24) and the Herbicidal rating (Smartweed [13]; 0.28 kg/ha) was 0 (0-24). The Herbicidal rating (Smartweed [13]; 1.12 kg/ha) was 1 (25-49), the Herbicidal rating (Smartweed [13]; 5.6 kg/ha) was 2 (50-74) and the Herbicidal rating (Wild Buckwheat; 0.056 kg/ha) was 0 (0-24). For the same compound, the Herbicidal rating (Wild Buckwheat; 0.28 kg/ha) was 0 (0-24), the Herbicidal rating (Wild Buckwheat; 1.12 kg/ha) was 0 (0-24) and the Herbicidal rating (Wild Buckwheat; 5.6 kg/ha) was 0 (0-24). The Herbicidal rating (Crabgrass; 0.056 kg/ha) was 3 (75-100), the Herbicidal rating (Crabgrass; 0.28 kg/ha) was 3 (75-100) and the Herbicidal rating (Crabgrass; 1.12 kg/ha) was 3 (75-100). The Herbicidal rating (Crabgrass; 5.6 kg/ha) was 3 (75-100), the Herbicidal rating (Cocklebur [14]; 0.056 kg/ha) was 0 (0-24) and the Herbicidal rating (Cocklebur [14]; 0.28 kg/ha) was 0 (0-24). The Herbicidal rating (Cocklebur [14]; 1.12 kg/ha) was 0 (0-24) and the Herbicidal rating (Cocklebur [14]; 5.6 kg/ha) was 0 (0-24).
